This passage reports IC50 results from US11845730B2, “1,3-substituted cyclobutyl derivatives and uses thereof” (Novartis AG, priority 2021, dated 2023).

Where a name gives a salt, the structure may show the parent alone.

Sequence of human TRPV1 (Q8NER1 whole entry): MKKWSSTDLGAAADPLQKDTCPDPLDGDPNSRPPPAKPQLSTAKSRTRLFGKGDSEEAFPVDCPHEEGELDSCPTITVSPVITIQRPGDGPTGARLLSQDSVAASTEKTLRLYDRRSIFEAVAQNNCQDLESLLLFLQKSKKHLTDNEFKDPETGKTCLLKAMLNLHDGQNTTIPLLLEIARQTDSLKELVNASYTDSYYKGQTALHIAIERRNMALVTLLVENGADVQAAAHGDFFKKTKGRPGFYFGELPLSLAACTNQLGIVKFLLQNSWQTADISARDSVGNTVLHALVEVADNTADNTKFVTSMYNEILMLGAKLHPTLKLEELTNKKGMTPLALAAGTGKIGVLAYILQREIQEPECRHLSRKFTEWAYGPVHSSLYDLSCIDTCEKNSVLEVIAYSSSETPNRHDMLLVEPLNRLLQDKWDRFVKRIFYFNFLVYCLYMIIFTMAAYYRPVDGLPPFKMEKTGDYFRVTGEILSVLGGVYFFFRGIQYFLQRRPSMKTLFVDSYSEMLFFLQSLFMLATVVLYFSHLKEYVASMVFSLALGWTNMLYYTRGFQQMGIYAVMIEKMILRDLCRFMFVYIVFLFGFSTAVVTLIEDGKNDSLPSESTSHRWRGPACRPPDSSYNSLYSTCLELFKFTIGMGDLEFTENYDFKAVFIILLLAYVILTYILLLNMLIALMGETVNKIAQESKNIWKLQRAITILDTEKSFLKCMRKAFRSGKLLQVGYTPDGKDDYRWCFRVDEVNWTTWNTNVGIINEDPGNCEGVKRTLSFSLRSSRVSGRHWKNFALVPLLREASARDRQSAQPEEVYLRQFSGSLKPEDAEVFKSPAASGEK

The experiment concerns the target human TRPV1 (Homo sapiens (Human), UniProt Q8NER1). The conditions noted are these: read-out: IC50 (μM), antagonist effect against human TRPV1; CHO cells expressing human TrpV1; stimulated with 2.5 μM NADA (EC80); mean of at least three independent experiments.
Method: Chinese Hamster Ovary (CHO) cells transfected to express human TrpV1 receptor (which are herein referred to as CHO-huTrpV1 cells), were grown in F-12 Ham's Nutrient Mixture media (HyClone SH30026.01) supplemented with 10% Fetal Bovine Serum (Invitrogen #26140-079), 1% Antibiotic/antimycotic (Invitrogen #15240-062) and 500 ug/mL geneticin (ThermoFisher scientific #1031035). Cells were grown in T-75 flasks at 37° C. incubator with 5% CO2. The cells were passaged twice a week at a ratio of 1:10 to 1:20 to maintain steady growth. For experimentation, cells were harvested at approximately 80% confluency and plated onto 384 well black cell culture plates (cat #781091, Greinier Bio-One Inc.) at 15,000 cells per well in 20 μl media and grown overnight.
The loading dye was prepared following instruction of Calcium 6 assay kit (Molecular Probes, #R8190): 10 ml buffer from bottle B was added to 1 vial of bottle A (adapted to room temperature from −20° C.) and mixed well, then 2.5 mM of fresh prepared probenecid, was added and mixed well. 20 μl/well of loading dye was added on top of the cells, and incubated at 37° C. for 1 hour 30 min.
Assay buffer preparation: 1×HBSS, 2 mM HEPES, 0.1% BSA plus 2.5 mM freshly prepared probenecid (Invitrogen, #P36400). 25 μl/well assay buffer in 384 well clear plate (cat #782281, Greiner Bio-one) was dispensed with buffer distributor (Multidrop ComB1 from Thermo Scientific). The compounds were in 384 Echo plate (cat #LPL0200, Labcyte) and the starting concentration of compound was 10 mM, then 1 to 3 serial dilution in 100% DMSO, 8 ul/well). 125 nl compounds was transferred to the 384 well plate containing 25 μl/well buffer with Echo® 555 Liquid Handler (Labcyte), such that the compound concentration was 5 fold of final concentration. The plate was shook slowly at 40 rpm/min for 10 min to mix. 10 μl of 5 fold compound in the buffer was transferred to the cell plate (containing 20 μl cells and 20 μl dye) using Vertical Pipetting Station 384ST (Agilent Technologies). Six fold of final concentration of NADA (N-arachidonyl dopamine, cat #A8848, Sigma) in the assay buffer was prepared and 30 μl/well was distributed in 384 well clear plate.
After compounds were added to the cell plate with loading dye, within 10-15 minutes, cell plate and plate containing NADA was placed into the FLIPR (Fluorescent Imaging Plate Reader) instrument (Tetra System, Molecular device). The TRPV1 receptor was stimulated by application of 10 μl per well of NADA. For testing the effect of compounds for possible antagonism, 2.5 μM NADA was used at the EC80 concentration.
For determination of antagonist IC50 values (concentration of antagonist that inhibits response to NADA by 50%), at least 10 antagonist concentration were measured in triplicate. The response in the presence of the antagonist was calculated as a percentage of the control response to NADA and was plotted against the concentration of the antagonist. The IC50 was estimated by non-linear regression analysis to sigmoidal-logistic curves by HELIOS (PROD 2) system. These values were averaged (means and standard error of the mean) for at least three independent experiments.
For `Fc1ccc2cnccc2c1CN[C@H]1C[C@H](Oc2ccc3ccccc3c2)C1` [Example 31, (1r,3r)-N-((6-fluoroisoquinolin-5-yl)methyl)-3-(naphthalen-2-yloxy)cyclobutan-1-amine, HCl], the IC50 (as a rule, the concentration needed to halve the response being measured) is 0.264 µM.
With `Fc1ccc2ccc(O[C@H]3C[C@H](NCc4c(F)ccc5cnccc45)C3)cc2c1` [Example 32, (1r,3r)-N-((6-fluoroisoquinolin-5-yl)methyl)-3-((7-fluoronaphthalen-2-yl)oxy)cyclobutan-1-amine, HCl] the figure was 0.102 µM.
`Fc1ccc2cnccc2c1CN[C@H]1C[C@H](Oc2cccc(S(F)(F)(F)(F)F)c2)C1` [Example 33, (1r,3r)-N-((6-fluoroisoquinolin-5-yl)methyl)-3-(3-(pentafluoro-λ^6-sulfaneyl)phenoxy)cyclobutan-1-amine, HCl]: the IC50 came out at 0.0154 µM.
For `CCOC(=O)c1cccc(O[C@H]2C[C@H](NCc3c(F)ccc4cnccc34)C2)c1` [Example 34, ethyl 3-((1r,3r)-3-(((6-fluoroisoquinolin-5-yl)methyl)amino)cyclobutoxy)benzoate, HCl], the IC50 was determined as 0.0836 µM.
Take `Fc1cccc(O[C@H]2C[C@H](NCc3c(F)ccc4cnccc34)C2)c1F` [Example 35, (1r,3r)-3-(2,3-difluorophenoxy)-N-((6-fluoroisoquinolin-5-yl)methyl)cyclobutan-1-amine]: the IC50 amounted to 0.128 µM.
With `Fc1ccc2cnccc2c1CN[C@H]1C[C@H](Oc2ccc(OC(F)(F)F)cc2)C1` [Example 36, (1r,3r)-N-((6-fluoroisoquinolin-5-yl)methyl)-3-(4-(trifluoromethoxy)phenoxy)cyclobutan-1-amine, HCl], the IC50 was found to be 0.0989 µM.
The figure for `Fc1ccc2cnccc2c1CN[C@H]1C[C@H](Oc2cccc(OC(F)(F)F)c2)C1` [Example 37, (1r,3r)-N-((6-fluoroisoquinolin-5-yl)methyl)-3-(3-(trifluoromethoxy)phenoxy)cyclobutan-1-amine, HCl] is 0.0813 µM; for `Fc1ccc(O[C@H]2C[C@H](NCc3c(F)ccc4cnccc34)C2)cc1OC(F)(F)F` [Example 38, (1r,3r)-3-(4-fluoro-3-(trifluoromethoxy)phenoxy)-N-((6-fluoroisoquinolin-5-yl)methyl)cyclobutan-1-amine, HCl] it is 0.0514 µM; for `Fc1ccc2cnccc2c1CN[C@H]1C[C@H](Oc2ccc3c(c2)OC(F)(F)C(F)(F)O3)C1` [Example 39, (1r,3r)-N-((6-fluoroisoquinolin-5-yl)methyl)-3-((2,2,3,3-tetrafluoro-2,3-dihydrobenzo[b][1,4]dioxin-6-yl)oxy)cyclobutan-1-amine, HCl] it is 0.0108 µM.
With `FCC(F)c1cc(O[C@H]2C[C@H](NCc3c(F)ccc4cnccc34)C2)ccc1F` (stereo partly shown) [Example 40, (1r,3r)-3-(3-(1,2-difluoroethyl)-4-fluorophenoxy)-N-((6-fluoroisoquinolin-5-yl)methyl)cyclobutan-1-amine], the concentration for half-maximal inhibition (IC50) came to 0.124 µM.
On to `FCc1cc(O[C@H]2C[C@H](NCc3c(F)ccc4cnccc34)C2)ccc1F` [Example 41, (1r,3r)-3-(4-fluoro-3-(fluoromethyl)phenoxy)-N-((6-fluoroisoquinolin-5-yl)methyl)cyclobutan-1-amine, HCl], for which the concentration for half-maximal inhibition (IC50) was 0.09 µM.
Take `Fc1ccc2cnccc2c1CN[C@H]1C[C@H](Oc2ccc(C3CC3(F)F)cc2)C1` (stereo partly shown) [Example 42, (1r,3r)-3-(4-(2,2-difluorocyclopropyl)phenoxy)-N-((6-fluoroisoquinolin-5-yl)methyl)cyclobutan-1-amine, HCO2H]: the IC50 amounted to 0.173 µM.
The figure for `CC(C)c1cc(O[C@H]2C[C@H](NCc3cccc4cnccc34)C2)ccc1F` [Example 43, (1r,3r)-3-(4-fluoro-3-isopropylphenoxy)-N-(isoquinolin-5-ylmethyl)cyclobutan-1-amine, HCl] is 0.528 µM.
With `Fc1ccc2cnccc2c1CN[C@H]1C[C@H](Oc2cccc(C3(C(F)(F)F)CCO3)c2)C1` (stereo partly shown) [Example 44, (1r,3r)-N-((6-fluoroisoquinolin-5-yl)methyl)-3-(3-(2-(trifluoromethyl)oxetan-2-yl)phenoxy)cyclobutan-1-amine] the figure was 0.0326 µM; with `CC(C)(C)c1c(F)cc(O[C@H]2C[C@H](NCc3c(F)cc(CO)c4cnccc34)C2)cc1F` [Example 45, (5-((((1r,3r)-3-(4-(tert-butyl)-3,5-difluorophenoxy)cyclobutyl)amino)methyl)-6-fluoroisoquinolin-8-yl)methanol], 0.0188 µM; with `Fc1ccc2cnccc2c1CN[C@H]1C[C@H](Oc2ccc3c(c2)OC(F)(F)O3)C1` [Example 46, (1r,3r)-3-((2,2-difluorobenzo[d][1,3]dioxol-5-yl)oxy)-N-((6-fluoroisoquinolin-5-yl)methyl)cyclobutan-1-amine, HCl], 0.0402 µM.
The figure for `OCc1cc(F)c(CN[C@H]2C[C@H](Oc3ccc4c(c3)OC(F)(F)O4)C2)c2ccncc12` [Example 47, (5-((((1r,3r)-3-((2,2-difluorobenzo[d][1,3]dioxol-5-yl)oxy)cyclobutyl)amino)methyl)-6-fluoroisoquinolin-8-yl)methanol, HCl] is 0.0238 µM; for `COc1c(F)cc(O[C@H]2C[C@H](NCc3c(F)cc(CO)c4cnccc34)C2)cc1F` [Example 48, (5-((((1r,3r)-3-(3,5-difluoro-4-methoxyphenoxy)cyclobutyl)amino)methyl)-6-fluoroisoquinolin-8-yl)methanol] it is 0.0345 µM.
In the case of `COc1c(F)cc(O[C@H]2C[C@H](NCc3c(F)ccc4cnccc34)C2)cc1F` [Example 49, (1r,3r)-3-(3,5-difluoro-4-methoxyphenoxy)-N-((6-fluoroisoquinolin-5-yl)methyl)cyclobutan-1-amine], the IC50 is 0.0163 µM.
With `Fc1ccc(O[C@H]2C[C@H](NCc3c(F)ccc4cnccc34)C2)cc1OC(F)F` [Example 50, (1r,3r)-3-(3-(difluoromethoxy)-4-fluorophenoxy)-N-((6-fluoroisoquinolin-5-yl)methyl)cyclobutan-1-amine] the figure was 0.0806 µM.
As for `Fc1cc(O[C@H]2C[C@H](NCc3c(F)ccc4cnccc34)C2)ccc1OC(F)F` [Example 51, (1r,3r)-3-(4-(difluoromethoxy)-3-fluorophenoxy)-N-((6-fluoroisoquinolin-5-yl)methyl)cyclobutan-1-amine], the IC50 was 0.117 µM.
Turning to `Cc1c(F)cc(O[C@H]2C[C@H](NCc3c(F)ccc4cnccc34)C2)cc1F` [Example 52, (1r,3r)-3-(3,5-difluoro-4-methylphenoxy)-N-((6-fluoroisoquinolin-5-yl)methyl)cyclobutan-1-amine], the IC50 is 0.0271 µM.
With `Cc1c(F)cc(O[C@H]2C[C@H](NCc3c(F)cc(CO)c4cnccc34)C2)cc1F` [Example 53, (5-((((1r,3r)-3-(3,5-difluoro-4-methylphenoxy)cyclobutyl)amino)methyl)-6-fluoroisoquinolin-8-yl)methanol] the figure was 0.0769 µM; with `Cc1cc(O[C@H]2C[C@H](NCc3c(F)ccc4cnccc34)C2)cc(F)c1F` [Example 54, (1r,3r)-3-(3,4-difluoro-5-methylphenoxy)-N-((6-fluoroisoquinolin-5-yl)methyl)cyclobutan-1-amine], 0.0595 µM; with `Fc1ccc(O[C@H]2C[C@H](NCc3c(F)ccc4cnccc34)C2)c(F)n1` [Example 55, (1r,3r)-3-((2,6-difluoropyridin-3-yl)oxy)-N-((6-fluoroisoquinolin-5-yl)methyl)cyclobutan-1-amine], 0.352 µM.
The figure for `Fc1ccc2cnccc2c1CN[C@H]1C[C@H](Oc2ccnc(C(F)(F)F)c2)C1` [Example 56, (1r,3r)-N-((6-fluoroisoquinolin-5-yl)methyl)-3-((2-(trifluoromethyl)pyridin-4-yl)oxy)cyclobutan-1-amine] is 0.119 µM.
The figure for `Fc1cc(O[C@H]2C[C@H](NCc3c(F)ccc4cnccc34)C2)cnc1F` [Example 57, (1r,3r)-3-((5,6-difluoropyridin-3-yl)oxy)-N-((6-fluoroisoquinolin-5-yl)methyl)cyclobutan-1-amine] is 0.656 µM.
For `Fc1ccc2cnccc2c1CN[C@H]1C[C@H](Oc2ccc(C(F)(F)F)nc2F)C1` [Example 58, (1r,3r)-3-((2-fluoro-6-(trifluoromethyl)pyridin-3-yl)oxy)-N-((6-fluoroisoquinolin-5-yl)methyl)cyclobutan-1-amine], the IC50 worked out at 0.0829 µM.
The figure for `N#Cc1cc(O[C@H]2C[C@H](NCc3c(F)ccc4cnccc34)C2)ccc1C(F)(F)F` [Example 59, 5-((1r,3r)-3-(((6-fluoroisoquinolin-5-yl)methyl)amino)cyclobutoxy)-2-(trifluoromethyl)benzonitrile] is 0.0758 µM.
Consider `CCOC(=O)c1cc(O[C@H]2C[C@H](NCc3c(F)ccc4cnccc34)C2)ccc1C(F)(F)F` [Example 60, ethyl 5-((1r,3r)-3-(((6-fluoroisoquinolin-5-yl)methyl)amino)cyclobutoxy)-2-(trifluoromethyl)benzoate], for which the 50% inhibitory concentration (IC50) came to 0.32 µM.
In the case of `N#Cc1c(O[C@H]2C[C@H](NCc3c(F)ccc4cnccc34)C2)cccc1C(F)(F)F` [Example 61, 2-((1r,3r)-3-(((6-fluoroisoquinolin-5-yl)methyl)amino)cyclobutoxy)-6-(trifluoromethyl)benzonitrile], the IC50 was 0.194 µM.
`Fc1ccc2cnccc2c1CN[C@H]1C[C@H](Oc2cnc(Cl)c(C(F)(F)F)c2)C1` [Example 62, (1r,3r)-3-((6-chloro-5-(trifluoromethyl)pyridin-3-yl)oxy)-N-((6-fluoroisoquinolin-5-yl)methyl)cyclobutan-1-amine]: the IC50 is 0.336 µM.
`Fc1ccc(NC2CC(NCc3c(F)ccc4cnccc34)C2)cc1C(F)(F)F` (stereo not shown) [Example 63, N^1-(4-fluoro-3-(trifluoromethyl)phenyl)-N^3-((6-fluoroisoquinolin-5-yl)methyl)cyclobutane-1,3-diamine]: the IC50 amounted to 0.0986 µM.
For `Fc1cc(CO[C@H]2C[C@H](NCc3c(F)ccc4cnccc34)C2)ccc1C(F)(F)F` [Example 64, (1r,3r)-3-((3-fluoro-4-(trifluoromethyl)benzyl)oxy)-N-((6-fluoroisoquinolin-5-yl)methyl)cyclobutan-1-amine], the IC50 is 0.163 µM.
